Results reported in PubChem BioAssay (NCI).
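Tested at 5 concentrations; 48 h exposure; 96-well plates; endpoints linearly interpolated, else capped at highest concentration. GI50 is the concentration that inhibits growth by half. At the TGI there is no net growth.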

Experiments:
Test in all cases: DTP human tumour cell line panel, 48 h
TK-10 renal = test system: TK-10 renal
LOX IMVI melanoma = test system: LOX IMVI melanoma
HOP-18 NSCLC = test system: HOP-18 NSCLC
SF-539 CNS = test system: SF-539 CNS
SF-295 CNS = test system: SF-295 CNS
A498 renal = test system: A498 renal
SW-620 colon = test system: SW-620 colon
KM20L2 colon = test system: KM20L2 colon
EKVX NSCLC = test system: EKVX NSCLC
UACC-257 melanoma = test system: UACC-257 melanoma
OVCAR-5 ovarian = test system: OVCAR-5 ovarian
RPMI-8226 leukemia = test system: RPMI-8226 leukemia
ACHN renal = test system: ACHN renal
SNB-75 CNS = test system: SNB-75 CNS
RXF 393 renal = test system: RXF 393 renal
SK-MEL-28 melanoma = test system: SK-MEL-28 melanoma
NCI-H522 lung = test system: NCI-H522 lung
HCT-116 colon = test system: HCT-116 colon
UO-31 renal = test system: UO-31 renal
M14 melanoma = test system: M14 melanoma
HCC-2998 colon = test system: HCC-2998 colon
OVCAR-4 ovarian = test system: OVCAR-4 ovarian
SK-OV-3 ovarian = test system: SK-OV-3 ovarian
A549 NSCLC = test system: A549 NSCLC
NCI-H23 lung = test system: NCI-H23 lung
OVCAR-8 ovarian = test system: OVCAR-8 ovarian
U251 CNS = test system: U251 CNS
SNB-19 CNS = test system: SNB-19 CNS
MOLT-4 leukemia = test system: MOLT-4 leukemia
DLD-1 colon = test system: DLD-1 colon
HOP-62 NSCLC = test system: HOP-62 NSCLC
SK-MEL-2 melanoma = test system: SK-MEL-2 melanoma
NCI-H226 lung = test system: NCI-H226 lung
SN12C renal = test system: SN12C renal
CAKI-1 renal = test system: CAKI-1 renal
NCI-H460 lung = test system: NCI-H460 lung
KM12 colon = test system: KM12 colon
HT29 colon = test system: HT29 colon
SF-268 CNS = test system: SF-268 CNS
OVCAR-3 ovarian = test system: OVCAR-3 ovarian
DMS 273 small cell lung = test system: DMS 273 small cell lung
DU-145 prostate = test system: DU-145 prostate
XF 498 CNS = test system: XF 498 CNS
M19-MEL melanoma = test system: M19-MEL melanoma
SR leukemia = test system: SR leukemia
HL-60(TB) leukemia = test system: HL-60(TB) leukemia
UACC-62 melanoma = test system: UACC-62 melanoma
786-0 renal = test system: 786-0 renal
MALME-3M melanoma = test system: MALME-3M melanoma
CCRF-CEM leukemia = test system: CCRF-CEM leukemia
COLO 205 colon = test system: COLO 205 colon
SNB-78 CNS = test system: SNB-78 CNS
LXFL 529 NSCLC = test system: LXFL 529 NSCLC
HCT-15 colon = test system: HCT-15 colon
IGROV1 ovarian = test system: IGROV1 ovarian
HOP-92 NSCLC = test system: HOP-92 NSCLC
SK-MEL-5 melanoma = test system: SK-MEL-5 melanoma
K-562 leukemia = test system: K-562 leukemia

Work on `CC(=O)N/C=C/c1cc(O)ccc1O` yielded a TGI (TK-10 renal) of 54500 nM, a TGI (LOX IMVI melanoma) of 45600 nM and a TGI (HOP-18 NSCLC) of 35200 nM. The TGI (SF-539 CNS) was > 66500 nM, the TGI (SF-295 CNS) was 48100 nM and the TGI (A498 renal) was 98100 nM. For the same compound, the TGI (SW-620 colon) was 35400 nM, the TGI (KM20L2 colon) was > 67700 nM and the TGI (EKVX NSCLC) was > 73600 nM. For the same compound, the TGI (UACC-257 melanoma) was 47900 nM, the TGI (OVCAR-5 ovarian) was 38100 nM and the TGI (RPMI-8226 leukemia) was > 89900 nM. The TGI (ACHN renal) was 37400 nM, the TGI (SNB-75 CNS) was > 81900 nM and the TGI (RXF 393 renal) was 49300 nM. For the same compound, the TGI (SK-MEL-28 melanoma) was 48600 nM, the TGI (NCI-H522 lung) was 7190 nM and the TGI (HCT-116 colon) was 47400 nM. The TGI (UO-31 renal) was 46200 nM, the TGI (M14 melanoma) was 48200 nM and the TGI (HCC-2998 colon) was > 76200 nM. The TGI (OVCAR-4 ovarian) was 47900 nM, the TGI (SK-OV-3 ovarian) was > 70600 nM and the TGI (A549 NSCLC) was > 76400 nM. The TGI (NCI-H23 lung) was 56100 nM, the TGI (OVCAR-8 ovarian) was > 85900 nM and the TGI (U251 CNS) was > 68600 nM. For the same compound, the TGI (SNB-19 CNS) was > 72400 nM, the TGI (MOLT-4 leukemia) was 37100 nM and the TGI (DLD-1 colon) was 48200 nM. For the same compound, the TGI (HOP-62 NSCLC) was > 55200 nM, the TGI (SK-MEL-2 melanoma) was 55100 nM and the TGI (NCI-H226 lung) was > 77400 nM. The TGI (SN12C renal) was 46900 nM, the TGI (CAKI-1 renal) was 41700 nM and the TGI (NCI-H460 lung) was > 74600 nM. For the same compound, the TGI (KM12 colon) was > 100000 nM, the TGI (HT29 colon) was 48600 nM and the TGI (SF-268 CNS) was 49800 nM. The TGI (OVCAR-3 ovarian) was 29800 nM, the TGI (DMS 273 small cell lung) was > 100000 nM and the TGI (DU-145 prostate) was > 100000 nM. The TGI (XF 498 CNS) was 32300 nM, the TGI (M19-MEL melanoma) was 46700 nM and the TGI (SR leukemia) was 70500 nM. The TGI (HL-60(TB) leukemia) was 54000 nM, the TGI (UACC-62 melanoma) was 47100 nM and the TGI (786-0 renal) was 48100 nM. For the same compound, the TGI (MALME-3M melanoma) was > 60600 nM, the TGI (CCRF-CEM leukemia) was 75300 nM and the TGI (COLO 205 colon) was 45800 nM. For the same compound, the TGI (SNB-78 CNS) was > 71800 nM, the TGI (LXFL 529 NSCLC) was 29000 nM and the TGI (HCT-15 colon) was > 72900 nM. For the same compound, the TGI (IGROV1 ovarian) was > 68100 nM, the TGI (HOP-92 NSCLC) was 36800 nM and the TGI (SK-MEL-5 melanoma) was > 67500 nM. The TGI (K-562 leukemia) was > 91700 nM.

Work on `C=[CH][Sn]([CH]=C)([S]c1cccc2cccnc12)[S]c1cccc2cccnc12` yielded a GI50 (TK-10 renal) of 458 nM, a TGI (TK-10 renal) of 1460 nM and a GI50 (LOX IMVI melanoma) of 172 nM. It also gave a TGI (LOX IMVI melanoma) of 310 nM, a GI50 (HOP-18 NSCLC) of 1660 nM and a TGI (HOP-18 NSCLC) of 3020 nM. The GI50 (SF-539 CNS) was 321 nM, the TGI (SF-539 CNS) was 1010 nM and the GI50 (SF-295 CNS) was 438 nM. For the same compound, the TGI (SF-295 CNS) was 1830 nM, the GI50 (SW-620 colon) was 156 nM and the TGI (SW-620 colon) was 299 nM. It also gave a GI50 (KM20L2 colon) of 211 nM, a TGI (KM20L2 colon) of 449 nM and a GI50 (EKVX NSCLC) of 678 nM. The TGI (EKVX NSCLC) was 1970 nM, the GI50 (UACC-257 melanoma) was 212 nM and the TGI (UACC-257 melanoma) was 494 nM. It also gave a GI50 (OVCAR-5 ovarian) of 237 nM, a TGI (OVCAR-5 ovarian) of 745 nM and a GI50 (RPMI-8226 leukemia) of 248 nM. For the same compound, the TGI (RPMI-8226 leukemia) was 692 nM, the GI50 (ACHN renal) was 206 nM and the TGI (ACHN renal) was 507 nM. For the same compound, the GI50 (SNB-75 CNS) was 562 nM, the TGI (SNB-75 CNS) was 2370 nM and the GI50 (RXF 393 renal) was 255 nM. For the same compound, the TGI (RXF 393 renal) was 678 nM, the GI50 (SK-MEL-28 melanoma) was 138 nM and the TGI (SK-MEL-28 melanoma) was 321 nM. The GI50 (HCT-116 colon) was 165 nM, the TGI (HCT-116 colon) was 318 nM and the GI50 (UO-31 renal) was 181 nM. It also gave a TGI (UO-31 renal) of 358 nM, a GI50 (M14 melanoma) of 210 nM and a TGI (M14 melanoma) of 404 nM. For the same compound, the GI50 (HCC-2998 colon) was 212 nM, the TGI (HCC-2998 colon) was 437 nM and the GI50 (OVCAR-4 ovarian) was 204 nM. It also gave a TGI (OVCAR-4 ovarian) of 553 nM, a GI50 (SK-OV-3 ovarian) of 436 nM and a TGI (SK-OV-3 ovarian) of 1550 nM. The GI50 (A549 NSCLC) was 343 nM, the TGI (A549 NSCLC) was 1120 nM and the GI50 (NCI-H23 lung) was 169 nM. The TGI (NCI-H23 lung) was 388 nM, the GI50 (OVCAR-8 ovarian) was 313 nM and the TGI (OVCAR-8 ovarian) was 1000 nM. For the same compound, the GI50 (U251 CNS) was 191 nM, the TGI (U251 CNS) was 380 nM and the GI50 (SNB-19 CNS) was 794 nM. It also gave a TGI (SNB-19 CNS) of 2040 nM, a GI50 (MOLT-4 leukemia) of 287 nM and a TGI (MOLT-4 leukemia) of 967 nM. The GI50 (DLD-1 colon) was 244 nM, the TGI (DLD-1 colon) was 722 nM and the GI50 (HOP-62 NSCLC) was 1450 nM. For the same compound, the TGI (HOP-62 NSCLC) was 3490 nM, the GI50 (SK-MEL-2 melanoma) was 222 nM and the TGI (SK-MEL-2 melanoma) was 490 nM. The GI50 (NCI-H226 lung) was 280 nM, the TGI (NCI-H226 lung) was 1150 nM and the GI50 (SN12C renal) was 442 nM. It also gave a TGI (SN12C renal) of 1600 nM, a GI50 (CAKI-1 renal) of 366 nM and a TGI (CAKI-1 renal) of 1580 nM. For the same compound, the GI50 (NCI-H460 lung) was 201 nM, the TGI (NCI-H460 lung) was 417 nM and the GI50 (KM12 colon) was 176 nM. It also gave a TGI (KM12 colon) of 322 nM, a GI50 (HT29 colon) of 226 nM and a TGI (HT29 colon) of 476 nM. It also gave a GI50 (OVCAR-3 ovarian) of 268 nM, a TGI (OVCAR-3 ovarian) of 810 nM and a GI50 (DMS 273 small cell lung) of 216 nM. It also gave a TGI (DMS 273 small cell lung) of 486 nM, a GI50 (XF 498 CNS) of 283 nM and a TGI (XF 498 CNS) of 679 nM. For the same compound, the GI50 (M19-MEL melanoma) was 194 nM, the TGI (M19-MEL melanoma) was 372 nM and the GI50 (SR leukemia) was 216 nM. The TGI (SR leukemia) was 687 nM, the GI50 (HL-60(TB) leukemia) was 268 nM and the TGI (HL-60(TB) leukemia) was 611 nM. For the same compound, the GI50 (UACC-62 melanoma) was 147 nM, the TGI (UACC-62 melanoma) was 287 nM and the GI50 (786-0 renal) was 216 nM. It also gave a TGI (786-0 renal) of 452 nM, a GI50 (CCRF-CEM leukemia) of 76.7 nM and a TGI (CCRF-CEM leukemia) of 641 nM. It also gave a GI50 (COLO 205 colon) of 70.2 nM, a TGI (COLO 205 colon) of 254 nM and a GI50 (SNB-78 CNS) of 145 nM. For the same compound, the TGI (SNB-78 CNS) was 396 nM, the GI50 (LXFL 529 NSCLC) was 236 nM and the TGI (LXFL 529 NSCLC) was 649 nM. For the same compound, the GI50 (HCT-15 colon) was 237 nM, the TGI (HCT-15 colon) was 648 nM and the GI50 (IGROV1 ovarian) was 273 nM. For the same compound, the TGI (IGROV1 ovarian) was 726 nM, the GI50 (HOP-92 NSCLC) was 1590 nM and the TGI (HOP-92 NSCLC) was 3070 nM. The GI50 (SK-MEL-5 melanoma) was 203 nM, the TGI (SK-MEL-5 melanoma) was 389 nM and the GI50 (K-562 leukemia) was 234 nM. For the same compound, the TGI (K-562 leukemia) was 621 nM.
